Reference: patent US8815260B1, “Treatment of restenosis and stenosis with dasatinib” (University of South Florida, priority 2005, dated 2014)
Like-named read-outs stand apart in the source and are kept apart here.

Assays:
[1] = system: porcine SMC; settings: Banai et al., 1998; cited from earlier work
[2] = target: IGF-1R (Rattus norvegicus, UniProt P24062); settings: A10 cells, up to 50 nM, IGF-1 10 ng/ml 10 min
[3] = system: STAT3, Akt, Erk2; assay: PDGF-stimulated activation of STAT3, Akt and Erk2 in A10 cells (immunoblotting); format: cell-based, rat
[4] = system: A10 cells; assay: Flow cytometric analysis of cell cycle phase distribution, PDGF-treated A10 cells; format: cell-based, rat; settings: PDGF 10 ng/ml plus 50 nM
[5] = cited from earlier work
[6] = system: STAT3, Akt, Erk2; assay: PDGF-stimulated activation of STAT3, Akt and Erk2 in primary human AoSMCs; format: cell-based; settings: 0-50 nM, not reduced below basal activation state
[7] = target: PDGFRβ (Rattus norvegicus, UniProt Q05030); settings: A10 cells
Sequence of PDGFRβ (Q05030 32-1097): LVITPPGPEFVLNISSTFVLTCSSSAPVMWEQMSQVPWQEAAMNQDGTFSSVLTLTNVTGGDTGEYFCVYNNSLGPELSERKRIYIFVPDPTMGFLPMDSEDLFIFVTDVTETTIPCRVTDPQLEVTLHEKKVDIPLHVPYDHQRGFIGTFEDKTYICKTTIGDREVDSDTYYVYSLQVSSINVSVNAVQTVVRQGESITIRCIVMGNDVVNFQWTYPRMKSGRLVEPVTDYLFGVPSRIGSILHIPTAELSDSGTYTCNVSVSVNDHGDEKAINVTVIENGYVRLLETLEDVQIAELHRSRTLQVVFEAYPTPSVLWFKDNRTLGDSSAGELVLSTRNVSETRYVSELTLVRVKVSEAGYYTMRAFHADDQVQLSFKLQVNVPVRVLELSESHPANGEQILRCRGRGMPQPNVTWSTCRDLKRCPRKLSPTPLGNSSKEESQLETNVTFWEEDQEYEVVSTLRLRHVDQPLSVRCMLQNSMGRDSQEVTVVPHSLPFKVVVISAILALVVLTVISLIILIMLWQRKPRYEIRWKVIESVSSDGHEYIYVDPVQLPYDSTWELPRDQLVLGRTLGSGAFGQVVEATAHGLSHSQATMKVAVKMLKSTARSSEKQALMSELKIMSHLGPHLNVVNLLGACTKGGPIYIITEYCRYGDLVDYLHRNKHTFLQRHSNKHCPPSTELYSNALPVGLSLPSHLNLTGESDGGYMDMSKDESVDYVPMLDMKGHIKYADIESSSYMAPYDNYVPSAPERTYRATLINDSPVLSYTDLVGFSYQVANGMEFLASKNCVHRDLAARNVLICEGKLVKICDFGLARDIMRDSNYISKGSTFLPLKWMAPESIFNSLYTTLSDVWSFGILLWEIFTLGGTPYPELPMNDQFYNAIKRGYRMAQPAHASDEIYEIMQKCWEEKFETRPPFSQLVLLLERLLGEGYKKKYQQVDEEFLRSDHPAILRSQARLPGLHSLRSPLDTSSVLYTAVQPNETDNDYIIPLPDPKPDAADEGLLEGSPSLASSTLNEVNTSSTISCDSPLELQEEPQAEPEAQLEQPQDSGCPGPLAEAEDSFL

[8] = system: PDGFR; settings: Buchdunger et al., 1996; Sanz-Gonzalez et al., 2004; cited from earlier work

Sequence of IGF-1R (P24062 31-1370): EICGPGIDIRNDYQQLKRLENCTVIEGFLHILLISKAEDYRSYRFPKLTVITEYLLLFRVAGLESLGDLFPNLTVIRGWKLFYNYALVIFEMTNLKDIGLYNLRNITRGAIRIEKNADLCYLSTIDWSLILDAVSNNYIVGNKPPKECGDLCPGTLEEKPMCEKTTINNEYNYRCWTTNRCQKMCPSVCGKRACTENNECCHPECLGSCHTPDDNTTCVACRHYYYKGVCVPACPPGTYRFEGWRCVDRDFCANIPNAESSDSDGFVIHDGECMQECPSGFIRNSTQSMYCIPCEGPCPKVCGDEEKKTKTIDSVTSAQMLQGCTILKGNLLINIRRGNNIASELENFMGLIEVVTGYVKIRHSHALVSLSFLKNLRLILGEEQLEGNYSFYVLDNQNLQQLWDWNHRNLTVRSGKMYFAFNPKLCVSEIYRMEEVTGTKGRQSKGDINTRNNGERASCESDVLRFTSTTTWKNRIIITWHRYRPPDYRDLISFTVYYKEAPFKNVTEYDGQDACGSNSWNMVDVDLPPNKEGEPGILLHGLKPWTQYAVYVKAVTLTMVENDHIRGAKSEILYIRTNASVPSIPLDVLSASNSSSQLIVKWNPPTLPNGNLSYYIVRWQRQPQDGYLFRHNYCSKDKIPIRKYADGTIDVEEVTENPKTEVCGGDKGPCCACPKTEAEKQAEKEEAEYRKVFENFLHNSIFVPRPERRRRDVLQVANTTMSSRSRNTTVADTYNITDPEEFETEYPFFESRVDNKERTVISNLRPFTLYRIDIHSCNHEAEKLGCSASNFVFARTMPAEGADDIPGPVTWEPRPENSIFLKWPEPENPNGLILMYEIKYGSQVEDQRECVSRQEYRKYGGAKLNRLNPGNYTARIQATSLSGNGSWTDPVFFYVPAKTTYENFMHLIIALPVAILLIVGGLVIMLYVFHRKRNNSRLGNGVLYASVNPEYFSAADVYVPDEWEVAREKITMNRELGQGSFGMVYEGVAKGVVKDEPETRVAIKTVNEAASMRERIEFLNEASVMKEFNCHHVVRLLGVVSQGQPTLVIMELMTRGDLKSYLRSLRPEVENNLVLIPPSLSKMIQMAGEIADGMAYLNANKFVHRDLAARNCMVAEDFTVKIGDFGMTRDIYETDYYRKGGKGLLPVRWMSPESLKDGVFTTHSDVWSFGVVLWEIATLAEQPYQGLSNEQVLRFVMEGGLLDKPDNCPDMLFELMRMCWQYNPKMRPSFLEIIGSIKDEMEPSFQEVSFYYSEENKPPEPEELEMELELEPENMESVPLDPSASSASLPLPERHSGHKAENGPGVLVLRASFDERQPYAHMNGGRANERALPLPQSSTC

For Cc1cc2ncc(-c3ccccc3)nc2cc1C [AG-1295], the “inhibition of porcine SMC proliferation, nature of the effect” value [1] is given as “reversible and not toxic”.

In the case of Cc1nc(Nc2ncc(C(=O)Nc3c(C)cccc3Cl)s2)cc(N2CCN(CCO)CC2)n1 [BMS-354825, N-(2-chloro-6-methylphenyl)-2-[[6-[4-[(2-hydroxyethyl)-1-piperazinyl]-2-methyl-4-pyrimidinyl]amino]-5-thiazolecarboxamide, monohydrate], the “inhibition of IGF-1R tyrosine phosphorylation” value [2] is reported as “No detectable inhibition”, the “PDGF-stimulated activation of STAT3, Akt and Erk2 (activation-specific phosphorylation)” value ([3]; 50 nM, PDGF-BB 5 ng/ml) is reported as “inhibited” and the “percentage of cells in G2 phase” value ([4]; 16 h (PDGF alone 10.74%, no PDGF 0.99%)) is reported as 3.75%. For the same compound, the “percentage of cells in S phase” value ([4]; 16 h (PDGF alone 23.83%, no PDGF 10.4%)) was 7.99%, the “percentage of cells in G1 phase” value ([4]; 16 h (PDGF alone 65.44%, no PDGF 88.65%)) was 88.29% and the Cmax ([5]; BMS-354825 dosing for CML, oral, read-out: Cmax) was 60 to 120 nM. The Cmax ([5]; oral delivery route, 140 mg/day) was 30 to 60 ng/mL, the “PDGF-induced further activation of STAT3” value [6] was “blocked” and the “PDGF-stimulated PDGFRβ tyrosine phosphorylation” value ([7]; 50 nM, PDGF-BB 5 ng/ml, all time points (0-30 min)) was “effectively blocked”.

In the case of Cc1ccc(NC(=O)c2ccc(CN3CCN(C)CC3)cc2)cc1Nc1nccc(-c2cccnc2)n1 [imatinib], the “concentration giving complete inhibition of PDGF-stimulated Akt and Erk2 activation” value ([3]; PDGF-BB 5 ng/ml 5 min) is reported as 5 µM, the “decrease in STAT3 tyrosine phosphorylation” value ([3]; PDGF-BB 5 ng/ml 5 min, relative to the 5 μM needed for Akt and Erk2) is reported as “appeared at lower concentrations” and the “concentration required for the same level (complete block) of PDGFR inhibition” value ([7]; parallel experiments, PDGF-BB 5 ng/ml 5 min) is reported as 5 µM. The “concentrations required for inhibition of PDGFR in cell-based assays” value [8] was “micromolar concentrations”.
